Measured values: PMC12677699, “Utilizing Proteolytic‐Resistant Nano‐Short Peptide Based on Naphthyl Tail‐Anchored to Combat Bacterial Infections” (Advanced Science, 2025)
Converted amounts (≈) assume the structure as drawn. Non-standard residues stand in square brackets, D forms with d. Residues, ends and D or L forms follow the SMILES beside them. ξ: configuration not given here. 2Nal = N[C@@H](Cc1ccc2ccccc2c1)C(=O)O; Ahp(2) = CCCCC[C@H](N)C(=O)O; ξAhp(2) = CCCCCC(N)C(=O)O

Legend:
E. coli 078 = assay type: cell-based, Escherichia coli
Description: (§1) The MIC values of the nano‐short peptides were determined according to standard protocols.^[ [63] ^] Bacterial strains were revived from cryopreservation and cultured in Mueller–Hinton broth (MHB) to logarithmic growth phase, then diluted to a final density of 0.5–1 × 10⁶ CFU mL^−1. Serial dilutions of the nano‐short peptides were prepared in 0.2% bovine serum albumin (BSA) using a 96‐well plate format. Equal volumes of peptide solutions and bacterial suspensions were combined and incubated at 37 °C for 20–22 h. Bacterial growth was assessed by measuring absorbance at 492 nm, with MHB alone (negative control) and untreated bacterial suspension (positive control) included for reference.

E. coli 25922 = assay type: cell-based, Escherichia coli
Description: as §1

E. coli UB1005 = assay type: cell-based, Escherichia coli
Description: as §1

P. aeruginosa 27853 = assay type: cell-based, Pseudomonas aeruginosa
Description: as §1

P. aeruginosa PAO1 = assay type: cell-based, Pseudomonas aeruginosa
Description: as §1

S. pullorum C7913 = assay type: cell-based
Description: as §1

S. typhimurium 14028 = assay type: cell-based, Salmonella typhimurium
Description: as §1

S. typhimurium 7731 = assay type: cell-based, Salmonella typhimurium
Description: as §1

S. aureus 25923 = assay type: cell-based, Staphylococcus aureus
Description: as §1

S. aureus 29213 = assay type: cell-based, Staphylococcus aureus
Description: as §1

MRSA 43300 = assay type: cell-based, Methicillin-Resistant Staphylococcus aureus
Description: as §1

E. faecalis 29212 = assay type: cell-based, Enterococcus faecalis
Description: as §1

S. epidermidis 12228 = assay type: cell-based, Staphylococcus epidermidis
Description: as §1

[1] = Critical aggregation concentration, 1,8-ANS fluorescence; assay type: physicochemical; conditions: 1,8-ANS 1 × 10^−6 M, peptide 2-256 × 10^−6 M in deionized water, 1 h, ex 360 nm, em 420–670 nm, linear fitting of fluorescence intensities
Description: The self‐assembly behavior of nano‐short peptides was characterized by determining the CAC using 1,8‐ANS as a hydrophobic fluorescent probe.^[ [32] ^] Serial peptide dilutions (2‐256 × 10^−6 M in 50 µL deionized water) were prepared in 96‐well plates. 1,8‐ANS powder was solubilized in dimethylformamide (DMF) and added to the 96‐well plates (final concentration of 1 × 10^−6 M), and deionized water solution containing 1,8‐ANS was used as a blank control. After incubation for 1 h, the fluorescence emission spectra were continuously monitored with a microplate reader (Tecan Infinite200 Pro, λ excitation = 360 nm, λ emission = 420–670 nm). CAC values were determined by linear fitting of representative fluorescence intensities.

A. baumannii AB1901 = experiment: MIC against clinical strain; assay type: cell-based; conditions: Acinetobacter baumannii, AB1901, read-out: MIC, A. baumannii AB1901
Description: as §1

A. baumannii AB1902 = experiment: MIC against clinical strain; assay type: cell-based; conditions: Acinetobacter baumannii, AB1902, read-out: MIC, A. baumannii AB1902
Description: as §1

P. aeruginosa 25349 = experiment: MIC against clinical strain; assay type: cell-based; conditions: Pseudomonas aeruginosa, 25349, read-out: MIC, P. aeruginosa 25349
Description: as §1

S. aureus 11011 = experiment: MIC against clinical strain; assay type: cell-based; conditions: Staphylococcus aureus, 11011, read-out: MIC, S. aureus 11011
Description: as §1

E. coli ATCC 25922 [2] = experiment: Drug resistance assay, 30 serial passages; assay type: cell-based, Escherichia coli; conditions: E. coli ATCC 25922, 30 successive passages at sub-MIC concentrations
Description: (§2) The potential resistance development of nano‐short peptides was evaluated through 30 serial passages of E. coli ATCC 25922 and S. aureus ATCC 29213 in sub‐MIC conditions,^[ [38] ^] using gentamicin as control.

S. aureus ATCC 29213 = experiment: Drug resistance assay, 30 serial passages; assay type: cell-based, Staphylococcus aureus; conditions: S. aureus ATCC 29213, 30 successive passages at sub-MIC concentrations; gentamicin by day 17
Description: as §2

E. coli ATCC 25922 [3] = experiment: Serum tolerance assay (MIC after incubation with serum); assay type: cell-based, Escherichia coli; conditions: 4 h of incubation with various serum concentrations
Description: The serum stability of nano‐short peptides was evaluated by incubating peptide solutions with fetal bovine serum (FBS), which was at concentrations of 25%, 50%, and 100% (diluted in 0.2% BSA solution). Following 4 h of incubation, the antimicrobial activity was determined by measuring the MIC against the test strains.

Structure (SMILES)	MIC, E. coli 078 (E. coli 078) [µM]	MIC, E. coli 25922 (E. coli 25922) [µM]	MIC, E. coli UB1005 (E. coli UB1005) [µM]	MIC, P. aeruginosa 27853 (P. aeruginosa 27853) [µM]	MIC, P. aeruginosa PAO1 (P. aeruginosa PAO1) [µM]	MIC, S. pullorum C7913 (S. pullorum C7913) [µM]	MIC, S. typhimurium 14028 (S. typhimurium 14028) [µM]	MIC, S. typhimurium 7731 (S. typhimurium 7731) [µM]	MIC, S. aureus 25923 (S. aureus 25923) [µM]	MIC, S. aureus 29213 (S. aureus 29213) [µM]	MIC, MRSA 43300 (MRSA 43300) [µM]	MIC, E. faecalis 29212 (E. faecalis 29212) [µM]	MIC, S. epidermidis 12228 (S. epidermidis 12228) [µM]	critical aggregation concentration (CAC) [1] [µM]	MIC (A. baumannii AB1901) [µM]	MIC (A. baumannii AB1902) [µM]	MIC (P. aeruginosa 25349) [µM]	MIC (S. aureus 11011) [µM]	other results
CNC(C)C1CCC(N)C(OC2C(N)CC(N)C(OC3OCC(C)(O)C(NC)C3O)C2O)O1 (stereo not shown) [Gentamicin]															2 (≈ 0.955 µg/mL)	128 (≈ 61.1 µg/mL)	128 (≈ 61.1 µg/mL)	128 (≈ 61.1 µg/mL)	increase in MIC values after serial passage (E. coli ATCC 25922 [2]): 128 fold; increase in MIC values after serial passage (S. aureus ATCC 29213): 128 fold
CCCCCC(N)C(=O)NC(CCCCC)C(=O)NC(CCCCC)C(=O)NC(CCCCC)C(=O)NC(CCCCC)C(=O)N[C@H](CCCNC(=N)N)C(=O)N[C@@H](CCCNC(=N)N)C(=O)N[C@@H](CCCNC(=N)N)C(=O)N1CCC[C@H]1C(=O)O (stereo partly shown) [Peptide B5] (H-[ξAhp(2)][ξAhp(2)][ξAhp(2)][ξAhp(2)][ξAhp(2)][dR]RRP-OH; N-terminus assumed)	256 (≈ 312 µg/mL)	256 (≈ 312 µg/mL)	256 (≈ 312 µg/mL)	256 (≈ 312 µg/mL)	256 (≈ 312 µg/mL)	128 (≈ 156 µg/mL)	256 (≈ 312 µg/mL)	256 (≈ 312 µg/mL)	256 (≈ 312 µg/mL)	256 (≈ 312 µg/mL)	32 (≈ 39 µg/mL)	256 (≈ 312 µg/mL)	256 (≈ 312 µg/mL)	3.34					
NC[C@H]1O[C@H](O[C@H]2[C@H](O)[C@@H](O[C@H]3O[C@H](CO)[C@@H](O)[C@H](N)[C@H]3O)[C@H](N)C[C@@H]2N)[C@H](O)[C@@H](O)[C@@H]1O [Kanamycin]															128 (≈ 62 µg/mL)	128 (≈ 62 µg/mL)	128 (≈ 62 µg/mL)	128 (≈ 62 µg/mL)	
CC(C)(O/N=C(\C(=O)N[C@@H]1C(=O)N2C(C(=O)[O-])=C(C[n+]3ccccc3)CS[C@H]12)c1csc(N)n1)C(=O)O [Ceftazidime]															8 (≈ 4.37 µg/mL)	128 (≈ 70 µg/mL)	32 (≈ 17.5 µg/mL)	128 (≈ 70 µg/mL)	
CCCCC[C@H](NC(=O)[C@H](CCCCC)NC(=O)[C@H](CCCCC)NC(=O)[C@@H](N)CCCCC)C(=O)N[C@@H](CCCCC)C(=O)N[C@@H](CCCCC)C(=O)N[C@H](CCCNC(=N)N)C(=O)N[C@@H](CCCNC(=N)N)C(=O)N[C@@H](CCCNC(=N)N)C(=O)N1CCC[C@H]1C(=O)O [Peptide B6] (H-[Ahp(2)][Ahp(2)][Ahp(2)][Ahp(2)][Ahp(2)][Ahp(2)][dR]RRP-OH; N-terminus and C-terminus assumed)	256 (≈ 345 µg/mL)	256 (≈ 345 µg/mL)	256 (≈ 345 µg/mL)	256 (≈ 345 µg/mL)	256 (≈ 345 µg/mL)	256 (≈ 345 µg/mL)	256 (≈ 345 µg/mL)	256 (≈ 345 µg/mL)	256 (≈ 345 µg/mL)	256 (≈ 345 µg/mL)	256 (≈ 345 µg/mL)	256 (≈ 345 µg/mL)	256 (≈ 345 µg/mL)	3.31					

Now from value to compound, other results behind:

MIC, E. coli 078 (E. coli 078) [µM]	MIC, E. coli 25922 (E. coli 25922) [µM]	MIC, E. coli UB1005 (E. coli UB1005) [µM]	MIC, P. aeruginosa 27853 (P. aeruginosa 27853) [µM]	MIC, P. aeruginosa PAO1 (P. aeruginosa PAO1) [µM]	MIC, S. pullorum C7913 (S. pullorum C7913) [µM]	MIC, S. typhimurium 14028 (S. typhimurium 14028) [µM]	MIC, S. typhimurium 7731 (S. typhimurium 7731) [µM]	MIC, S. aureus 25923 (S. aureus 25923) [µM]	MIC, S. aureus 29213 (S. aureus 29213) [µM]	MIC, MRSA 43300 (MRSA 43300) [µM]	MIC, E. faecalis 29212 (E. faecalis 29212) [µM]	MIC, S. epidermidis 12228 (S. epidermidis 12228) [µM]	critical aggregation concentration (CAC) [1] [µM]	Structure (SMILES)	MIC (A. baumannii AB1901) [µM]	MIC (A. baumannii AB1902) [µM]	MIC (P. aeruginosa 25349) [µM]	MIC (S. aureus 11011) [µM]	other results
256 (≈ 452 µg/mL)	256 (≈ 452 µg/mL)	256 (≈ 452 µg/mL)	256 (≈ 452 µg/mL)	256 (≈ 452 µg/mL)	256 (≈ 452 µg/mL)	256 (≈ 452 µg/mL)	256 (≈ 452 µg/mL)	256 (≈ 452 µg/mL)	256 (≈ 452 µg/mL)	256 (≈ 452 µg/mL)	256 (≈ 452 µg/mL)	256 (≈ 452 µg/mL)	6.65	N=C(N)NCCC[C@H](NC(=O)[C@H](Cc1ccc2ccccc2c1)NC(=O)[C@H](Cc1ccc2ccccc2c1)NC(=O)[C@H](Cc1ccc2ccccc2c1)NC(=O)[C@H](Cc1ccc2ccccc2c1)NC(=O)[C@H](Cc1ccc2ccccc2c1)NC(=O)[C@@H](N)Cc1ccc2ccccc2c1)C(=O)N[C@H](CCCNC(=N)N)C(=O)N[C@@H](CCCNC(=N)N)C(=O)N1CCC[C@H]1C(=O)O [Peptide N6] (H-[2Nal][2Nal][2Nal][2Nal][2Nal][2Nal]R[dR]RP-OH)					
256 (≈ 402 µg/mL)	256 (≈ 402 µg/mL)	256 (≈ 402 µg/mL)	256 (≈ 402 µg/mL)	256 (≈ 402 µg/mL)	256 (≈ 402 µg/mL)	256 (≈ 402 µg/mL)	256 (≈ 402 µg/mL)	256 (≈ 402 µg/mL)	256 (≈ 402 µg/mL)	256 (≈ 402 µg/mL)	256 (≈ 402 µg/mL)	256 (≈ 402 µg/mL)	11.66	N=C(N)NCCC[C@H](NC(=O)[C@H](Cc1ccc2ccccc2c1)NC(=O)[C@H](Cc1ccc2ccccc2c1)NC(=O)[C@H](Cc1ccc2ccccc2c1)NC(=O)[C@H](Cc1ccc2ccccc2c1)NC(=O)[C@@H](N)Cc1ccc2ccccc2c1)C(=O)N[C@H](CCCNC(=N)N)C(=O)N[C@@H](CCCNC(=N)N)C(=O)N1CCC[C@H]1C(=O)O [Peptide N5] (H-[2Nal][2Nal][2Nal][2Nal][2Nal]R[dR]RP-OH)					
8 (≈ 9.4 µg/mL)	16 (≈ 18.8 µg/mL)	8 (≈ 9.4 µg/mL)	8 (≈ 9.4 µg/mL)	16 (≈ 18.8 µg/mL)	16 (≈ 18.8 µg/mL)	32 (≈ 37.6 µg/mL)	32 (≈ 37.6 µg/mL)	16 (≈ 18.8 µg/mL)	16 (≈ 18.8 µg/mL)	16 (≈ 18.8 µg/mL)	16 (≈ 18.8 µg/mL)	16 (≈ 18.8 µg/mL)	62.79	N=C(N)NCCC[C@H](NC(=O)[C@H](Cc1ccc2ccccc2c1)NC(=O)[C@H](Cc1ccc2ccccc2c1)NC(=O)[C@@H](N)Cc1ccc2ccccc2c1)C(=O)N[C@H](CCCNC(=N)N)C(=O)N[C@@H](CCCNC(=N)N)C(=O)N1CCC[C@H]1C(=O)O [Peptide N3] (H-[2Nal][2Nal][2Nal]R[dR]RP-OH)					antimicrobial capacity after serum incubation (E. coli ATCC 25922 [3]): retained their original antimicrobial capacity
